Measured values taken from patent US9334487B2, “Methods for diagnosing rheumatoid arthritis” (Imperial Innovations Limited, priority 2007, dated 2016).
Where “and” joins values, the source holds several entries; their conditions need not be identical. Equal values may be shown once. Entries after “also recorded” stand apart in the source; their conditions may differ. Values belong to the compound of their own block, whether it stands above or below them. Bridges are numbered along the chain shown (N, C = ends). Where no end group is shown, it is not given here. [ ]: non-standard residue; d: D form. Cit = NC(=O)NCCC[C@H](N)C(=O)O

Legend:
[1] = tested on: anti-Peptide 1A and anti-CCP antibodies in serum; assay: Serology over time in 24 RA patients treated with MTX or MTX+INF; type: binding, human
Excerpt: Serum samples were obtained with informed consent and ethical approval from 102 patients with RA and 92 (or 110 patients for the results generally shown in FIGS. 9 to 16) patients with other arthritidies (including systemic lupus erythematosus (n=32), Sjogrens syndrome (n=31), psoriatic arthritis (n=5), Behçet's syndrome (n=18; FIGS. 9 to 16) and miscellaneous other rheumatic diseases (n=24). 92 control serum samples were obtained from healthy volunteers. An additional cohort of 24 patients with RA undergoing treatment with either methotrexate (MTX) alone (n=13) or methotrexate in combination with Infliximab (INF) (n=11) were collected before treatment as well as 6, 18 and 52 weeks post treatment. Disease activity score (DAS 28), erythrocyte sedimentation rate (ESR) and C-reactive protein (CRP) were measured for each patient at the same time points, i.e. 0, 6, 18 an 52 weeks post treatment. […]
96-well plates (Maxisorp; Nunc, Roskilde, Denmark) were coated with α-enolase peptides at 10 μg/ml (diluted in a 50 mM carbonate buffer, pH 9.6), or with carbonate buffer alone, and incubated over night at 4° C. […] After a final wash (PBS-Tween, 0.05%), bound antibodies were detected with TMB substrate (KPL, Maryland, USA). The reaction was stopped by the addition of 1M H2SO4 and absorbance measured at 450 nm in a Multiscan Ascent microplate reader (Thermo Labsystems). […]

[2] = Disease activity score DAS28 (CRP and ESR) in treated RA patients; type: in vivo, human; conditions: 6, 18 and 52 weeks post treatment; MTX n=13, MTX+INF n=11
Excerpt: (§1) Serum samples were obtained with informed consent and ethical approval from 102 patients with RA and 92 (or 110 patients for the results generally shown in FIGS. 9 to 16) patients with other arthritidies (including systemic lupus erythematosus (n=32), Sjogrens syndrome (n=31), psoriatic arthritis (n=5), Behçet's syndrome (n=18; FIGS. 9 to 16) and miscellaneous other rheumatic diseases (n=24). 92 control serum samples were obtained from healthy volunteers. An additional cohort of 24 patients with RA undergoing treatment with either methotrexate (MTX) alone (n=13) or methotrexate in combination with Infliximab (INF) (n=11) were collected before treatment as well as 6, 18 and 52 weeks post treatment. Disease activity score (DAS 28), erythrocyte sedimentation rate (ESR) and C-reactive protein (CRP) were measured for each patient at the same time points, i.e. 0, 6, 18 an 52 weeks post treatment. All patients attended the Rheumatology Clinic at Charing Cross Hospital, London. An independent cohort from the US included serum samples from 81 RA patients, taken at baseline in a clinical trial at the Omaha Veterans Affairs Medical Centre, University of Nebraska, USA, and 82 serum samples from healthy volunteers. All RA patients met the American College of Rheumatology (ACR) classification criteria (43).

[3] = tested on: anti-CEP-1 antibodies in anti-CEP-1 positive RA sera; assay: Liquid phase inhibition of binding to CEP-1-coated plates; parameters: species or system human; conditions: six anti-CEP-1 positive RA sera pre-incubated with 0, 1, 10 and 100 μg/ml peptide
Protocol: Inhibition experiments were performed in liquid phase on six anti-CEP-1 positive RA serum samples or on solid phase using serum from nine double positive (anti-CEP-1 and CCP positive) RA patients. Sera were either pre-incubated for 2 hours in RIA-buffer containing increasing concentrations (0, 1, 10 and 100 μg/ml) of CEP-1, control peptide 1D, peptide 4, peptide 7, peptide 9 or peptide 11, or pre-absorbed on plates coated with CEP-1, carbonate buffer alone or pre-absorbed on commercial CCP2 plates. To eliminate antigen-antibody complexes, the liquid phase mixtures were centrifuged at 13 000 rpm, for 15 minutes, before the supernatants were transferred to CEP-1-coated plates and assessed as described above Inhibition of binding to CEP-1, for serum samples pre-absorbed to CCP, was calculated in relation to the maximum inhibition, which by definition was set to 100% for samples pre-incubated with CEP-1.

[4] = tested on: serum IgG of RA patients, disease controls and healthy controls; assay: ELISA for IgG antibodies to cyclic α-enolase peptides, UK cohort sera; type: binding, human; conditions: for % positive, RA (n = 102): UK cohort RA sera; for % positive, RA (n = 102) / % positive, Disease controls (n = 110) / % positive, Healthy controls (n = 92): cut-off OD450 = 0.1
Excerpt: as §1
Fifteen cyclic 15 to 23-mer peptides were synthesised at Cambridge Research Biochemicals (Cleveland, UK). The peptide sequences corresponded to amino acid sequences in human α-enolase (SwissProt accession number P06733) or P. gingivalis enolase (SwissProt accession number AAQ66821), with the addition of cysteine residues at the amino- and carboxy-termini and the exchange of citrulline for arginine residues at certain positions, as shown in Tablet and Table 2 below.
(§2) 96-well plates (Maxisorp; Nunc, Roskilde, Denmark) were coated with α-enolase peptides at 10 μg/ml (diluted in a 50 mM carbonate buffer, pH 9.6), or with carbonate buffer alone, and incubated over night at 4° C. Wells were washed with PBS-Tween (0.05%) and blocked with 2% BSA (diluted in PBS) for 3 hours at room temperature. Sera were diluted 1:50 in RIA-buffer (10 mM Tris, 1% BSA, 350 mM NaCl, 1% Triton-X, 0.5% Na-deoxychlate, 0.1% SDS) supplemented with 10% FCS, added in duplicates and incubated for 1.5 hour at room temperature. Plates were washed as described above and incubated with peroxidase-conjugated mouse anti-human IgG (Hybridoma Reagent Laboratory, Baltimore, USA) (diluted 1:1000 in RIA-buffer, 10% FCS) for 1 hour at room temperature. After a final wash (PBS-Tween, 0.05%), bound antibodies were detected with TMB substrate (KPL, Maryland, USA). The reaction was stopped by the addition of 1M H2SO4 and absorbance measured at 450 nm in a Multiscan Ascent microplate reader (Thermo Labsystems). A control serum was included on all plates to correct for plate-to-plate variation. Background OD450 (wells coated with only carbonate buffer) was subtracted from peptide OD450 for every serum tested. Values above 0.1 were taken as positive. ELISA on the US serum samples were performed in a similar manner, but with 2% BSA in carbonate buffer as background, and with an OD cut-off of 0.2 for positive samples. Anti-CCP antibody status was analysed using the CCP2 kit (Eurodiagnostica, Malmo, Sweden), according to the manufacturer's instructions.

[5] = tested on: serum antibodies of SLE patients; assay: ELISA of SLE patient sera on α-enolase peptides (Example 2); type: binding, human; conditions: 29 SLE patients; OD450 below 0.1 negative
Protocol: Sera from 29 patients diagnosed with systemic lupus erythromatosus (SLE) were tested by ELISA for reactivity with 11 citrullinated α-enolase peptides, namely Peptide 1A, 1B, 1D and Peptides 2 to 9 as shown in Table 1. The ELISA assay was as described in Example 1.
The quantity of antibody, from each patient sample, binding to each peptide, is reflected by the OD (450 nm) in the ELISA assay. The OD (450 nm) corresponding to the background (buffer only) was subtracted. The results, after subtraction of background, are depicted in FIG. 8A. All OD (450 nm) values below 0.1 were considered negative (=0).

[6] = tested on: serum IgG of RA patients and healthy controls (US cohort); assay: anti-CEP-1 antibody ELISA, independent US cohort; type: binding, human
Excerpt: as §1
as §2, with “ELISA on the US serum samples were performed in a similar manner, but with 2% BSA in carbonate buffer as background, and with an OD cut-off of 0.2 for positive samples.” left out, “instructions. […]” for “instructions.”

[7] = tested on: serum antibodies of RA patients and healthy controls grouped by CCP status; assay: ELISA for reactivity with CEP-1, Swedish EIRA cohort (Example 3); type: binding, human
Protocol: Sera from healthy controls and 511 rheumatoid arthritis patients from the Swedish EIRA (Epidemiological Investigation of Rheumatoid Arthritis) cohort (Stolt et al, Quantification of the influence of cigarette smoking on RA, Ann Rheum Dis, 2003; 62:835-841), were tested for antibodies to cyclic citrullinated peptides using the commercially available anti-CCP ELISA. At least 600 healthy controls were screened and, amongst these, a rare population that were CCP positive (n=16) were identified. Two of these CCP positive individuals have developed RA since the blood samples were collected.
Sera from the 511 rheumatoid arthritis patients, 16 CCP positive healthy controls and 126 CCP negative healthy controls were also screened by ELISA for reactivity with CEP-1 (Peptide 1A) as described in Example 1. The rheumatoid arthritis patients were divided into CCP positive (n=410) and CCP negative (n=101) groups.

[8] = tested on: serum antibodies of RA patients and healthy controls; conditions: seven patients; cited from earlier work
[9] = cut-off 98th percentile of controls

% positive, RA (n = 102) [4]: 4%
% positive, Disease controls (n = 110) ([4]; UK cohort): 2%
% positive, Healthy controls (n = 92) ([4]; UK cohort): 2%
Compound: cangwgvmvsh-X-sgetedtc (CANGWGVMVSH[Cit]SGETEDTC; disulfide 1-20 (inferred); listed as Homo sapiens) [Peptide 7, human α-enolase aa 362-379]
inhibition of antibody binding to CEP-1-coated plates [3]: no inhibition
inhibition of antibody binding to CEP-1-coated plates ([3]; listed as peptide 7): did not result in decreased antibody binding
% of SLE sera scored positive [5]: 3.4%

% of healthy controls reactive ([4]; UK and US cohorts together): 2%
% positive, RA (n = 102) [4]: 37.3%
% positive, RA (n = 102) ([4]; listed as 1A(CEP-1)): 37%
% of anti-CCP negative RA patients positive ([4]; UK cohort, anti-CCP negative RA sera): 23%
% positive, non-RA patient controls (n=92) ([4]; UK cohort, smaller disease control group): 4.3%
% positive, Disease controls (n = 110) ([4]; UK cohort): 3%
% positive, Healthy controls (n = 92) ([4]; UK cohort): 2.2% and 2%
% positive, Healthy controls (n = 92) ([4]; UK cohort, listed as 1A(CEP-1)): 2%
specificity for RA ([4]; UK cohort, disease controls (92 or 110) and 92 healthy controls): 97%
anti-CEP-1 antibody status of patients with SLE and Behçet's disease ([4]; UK disease controls): uniformly negative
% of individuals without rheumatoid arthritis scored positive ([4]; summary statement): about 3% and ~2%
Compound: ckiha-X-eifds-X-gnptvec (CKIHA[Cit]EIFDS[Cit]GNPTVEC; disulfide 1-19 (inferred); listed as Homo sapiens) [Peptide 1A]
specificity, US cohort ([6]; 82 healthy controls, no disease controls): 98%
% RA patients positive / sensitivity, US cohort (n=81) [6, 9]: 62%
% healthy controls positive, US cohort (n=82) [6, 9]: 2%
% positive for anti-CEP-1 antibodies, CCP+ RA (n=410) ([7]; Swedish EIRA cohort): Sixty
% positive for anti-CEP-1 antibodies, CCP− RA (n=101) ([7]; Swedish EIRA cohort): 17%
% positive for anti-CEP-1 antibodies, CCP+ healthy controls (n=16) ([7]; Swedish cohort): 25%
% positive for anti-CEP-1 antibodies, CCP− healthy controls (n=126) ([7]; Swedish cohort): 0.8%
sensitivity at start of study ([1]; 24 RA patients, nine positive in each treatment group): 75%
inhibition of antibody binding to CEP-1-coated plates [3]: dose dependent decrease; also recorded: dose-dependent inhibition

Second part, the compound before the results:

Compound: CN(Cc1cnc2nc(N)nc(N)c2n1)c1ccc(C(=O)N[C@@H](CCC(=O)O)C(=O)O)cc1 [MTX, methotrexate]
anti-Peptide 1A antibody levels over time ([1]; pre-treatment, 6, 18 and 52 weeks, not statistically significant): increased
DAS28 (CRP and ESR) change [2]: did not result in such statistically significant decrease; also recorded: did not change significantly

Compound: cf-X-sgkydldfkspddps-X-yc (CF[Cit]SGKYDLDFKSPDDPS[Cit]YC; disulfide 1-21 (inferred); listed as Homo sapiens) [Peptide 6, human α-enolase aa 252-270]
% positive, RA (n = 102) [4]: 12%
% positive, Disease controls (n = 110) ([4]; UK cohort): 5%
% positive, Healthy controls (n = 92) ([4]; UK cohort): 0%
% of SLE sera scored positive [5]: 3.4%

Compound: non-citrullinated protein: whole non-citrullinated α-enolase protein
% of RA patients also recognizing the non-citrullinated protein [8]: 13%
